# Measurements: patent US20230034660A1, “PEPTIDES THAT ENHANCE NMDA RECEPTOR FUNCTION AND USE THEREOF” (University of Pittsburgh - Of the Commonwealth System of …, priority 2019, published 2023)
# Biological target: T1, GluN2A-ZnT1 interactions (Rattus norvegicus, UniProt Q62720)
# T1 construct: endogenous in cells; host or cells: rat embryonic (E16) cortical cultures, 3-4 weeks in vitro
# T1 sequence (Q62720 1-507): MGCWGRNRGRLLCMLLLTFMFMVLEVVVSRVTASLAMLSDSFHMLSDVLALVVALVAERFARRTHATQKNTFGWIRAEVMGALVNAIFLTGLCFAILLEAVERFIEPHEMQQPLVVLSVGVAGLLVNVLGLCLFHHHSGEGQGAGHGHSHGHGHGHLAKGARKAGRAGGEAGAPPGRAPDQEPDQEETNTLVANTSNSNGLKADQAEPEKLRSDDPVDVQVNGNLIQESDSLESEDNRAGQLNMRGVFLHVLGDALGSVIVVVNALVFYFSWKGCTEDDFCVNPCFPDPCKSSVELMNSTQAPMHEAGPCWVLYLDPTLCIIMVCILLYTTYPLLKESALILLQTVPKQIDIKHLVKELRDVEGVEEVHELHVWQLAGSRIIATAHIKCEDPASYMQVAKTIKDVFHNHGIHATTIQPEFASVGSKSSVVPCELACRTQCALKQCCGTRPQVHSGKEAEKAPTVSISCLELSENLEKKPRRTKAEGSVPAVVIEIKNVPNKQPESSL
# Assay: Proximity ligation assay (PLA) between GluN2A and ZnT1 in cortical cultures
# Type: cell-based
# Conditions: 3 μM overnight, cortical cultures 21-25 DIV, compared to scramble controls in sister cultures
# Protocol: FIGS. 3A-3B: N2AZ disrupts ZnT1 binding to the GluN2A subunit of NMDAR. (FIG. 3A) Representative images of rat cortical cultures following proximity ligation assay (PLA) between GluN2A and ZnT1. The PLA immunofluorescently labeled sites of interaction between GluN2A and ZnT1 (white punctae). Additionally, Map2 is immunofluorescently labeled to visualize neuron morphology. Scale bar: 20 μm. Top row denotes PLA assay following overnight exposure to 3 μM scN2AZ, while bottom row denotes PLA assay following 3 μM N2AZ treatment. Insets show the localization of PLA punctae along a Map2 stained dendrite. […] Filled circles indicate the quantification of representative images in FIG. 3A. Error bars indicate mean±SEM. […]
# Proximity ligation assays were performed using Duolink PLA kit. […] PLA puncta were counted automatically using Fiji ImageJ (Version 2.0) software using maximum intensity projection of 8 sequential images in the z plane. All images were normalized to the same intensity threshold using the Yen threshold setting prior to automated quantification of punctae.
# Next, rat neuronal cortical cultures were utilized to determine whether N2AZ treatment was sufficient to disrupt GluN2A-ZnT1 binding in vitro. First, however, ZnT1 expression in cortical cultures was verified using quantitative PCR. […] Next, GluN2A-ZnT1 interactions in the cultures were quantified using a proximity ligation assay (PLA). […]
sequence,measurement,value
NDSYLRSSL [Peptide N2AZ],amount of PLA puncta,significantly reduced
